Measurements reported in patent US20120165383A1, “INFLAMMATORY EYE DISEASE” (MASSACHUSETTS EYE & EAR INFIRMARY, priority 2004, published 2012).

Tests used:
[1] = system: CD14; experiment: Leukocyte total levels of the LPS receptor CD14, EIU rats; format: in vivo, rat; conditions: 1 mg/kg GA i.p. 24 h before LPS, FIG. 1
Procedure: (§1) Materials and Methods: Female Lewis rats received a single intraperitoneal injection of 1 mg/kg GA or vehicle (DMSO). EIU was induced 24 hours later by a footpad injection of 200 mg/kg lipopolysaccharide (LPS).
(§2) Retinal levels of VEGF, TNF-α, and leukocyte total levels of the LPS receptor CD14 were quantified with an ELISA method, whereas membranous CD14 levels were assessed with membrane precipitation and subsequent immunoblotting. For the ELISA, one day after the administration of the LPS rats were euthanized and retinal lysates were prepared on ice in RIPA lysis buffer (1% NP-40, 0.5% deoxycholate (DOC), 1% SDS, 150 mmol/L NaCl, 50 mmol/L Tris-HCl [pH 8.0]) containing sodium fluorid, […], phenylmethylsulfonylfluorid (PMSF), leupeptin and aprotinin. Protein concentration was determined by Bradford assay (Protein Assay, Bio-Rad, Hercules, Calif.). Samples containing the same amount of protein were assayed for their VEGF, TNF-α and CD14 levels with a commercially available kit (R&D systems, CA) as per the instructions of the manufacturer.

[2] = system: leukocyte adhesion; experiment: Quantitative endothelial cell-neutrophil adhesion assay in vitro, endotoxin-induced uveitis (EIU) rats; format: cell-based, rat; conditions: 1 mg/kg GA i.p. 24 h before LPS; evaluated 24 h after LPS; vs DMSO vehicle
Procedure: as §1
(§3) Twenty-four hours after the administration of LPS, leukocyte adhesion was evaluated in vitro with quantitative endothelial cell-neutrophil adhesion assays and ex vivo with concanavalin A lectin staining of retinal flatmounts, as follows. After the induction of deep anesthesia in the rat, the chest cavity was opened, and a 14-gauge perfusion cannula was introduced to the left ventricle. The right atrium was opened with a 12-gauge needle to achieve outflow. With the heart providing the motive force, 250 mL/kg PBS was administered from the perfusion cannula to remove erythrocytes and non-adherent leukocytes. […] Lectin staining was followed by 1% bovine serum albumin (BSA)/PBS perfusion for 1 minute, and PBS perfusion alone for 4 minutes, to remove excess concanavalin A. The retinas were flatmounted in a water-based fluorescence anti-fading medium (Fluoromount; Southern Biotechnology, Birmingham, Ala.) and imaged by fluorescence microscopy (Axioplan, FITC filter, 40×; Carl Zeiss, Oberkochen, Germany). […] Leukocyte location was scored as being either arteriolar, venular, or capillary. The total number of adherent leukocytes per retina was counted. […]

[3] = system: intercellular adhesion molecule 1 (ICAM-1); experiment: Retinal ICAM-1 levels, EIU rats; format: in vivo, rat; conditions: rats with EIU; FIG. 8
Procedure: as §1

[4] = system: leukocyte adhesion; experiment: Leukocyte adhesion ex vivo, concanavalin A lectin staining of retinal flatmounts, EIU rats; format: in vivo, rat; conditions: 1 mg/kg GA i.p. 24 h before LPS, evaluated 24 h after LPS, FIGS. 9-11
Procedure: as §1, §3

[5] = system: HIF-1α; experiment: Retinal HIF-1α activity, modified ELISA binding assay, EIU rats; format: in vivo, rat; conditions: 1 mg/kg GA i.p. 24 h before LPS, FIG. 3
Procedure: as §1
(§4) Retinal activities of NF-κB and HIF-1α were quantified with a modified ELISA method as described in Poulaki et al., Am. J. Pathol. 165(2):457-69 (2004) and Poulaki et al., J. Clin. Invest. 109(6):805-15 (2002). NF-κB activation was analyzed using the Trans-AM NF-κB […] transcription factor assay kit (Active Motif, Carlsbad, Calif.) according to the manufacturer's instructions, as previously described (Mitsiades et al., Proc. Natl. Acad. Sci. USA, 99:14374-14379 (2002); Mitsiades et al., Blood, 99:4525-4530 (2002)). […] Transcription factor binding to the target oligonucleotide was detected by incubation with respective specific primary monoclonal antibodies, visualized by anti-IgG horseradish peroxidase conjugate and developing solution, and quantified at 450 nm with a reference wavelength of 655 nm. Background binding was calculated by adding in selected wells the respective consensus oligonucleotides in excess (20 pmol/well) as soluble competitors that prevented transcription factor binding to the probe immobilized on the plate. […]

[6] = system: NF-κB; experiment: Retinal NF-κB activity, modified ELISA (Trans-AM), EIU rats; format: in vivo, rat; conditions: 1 mg/kg GA i.p. 24 h before LPS, FIG. 4
Procedure: as §1, §4

[7] = system: VEGF; experiment: Retinal VEGF levels, ELISA, EIU rats; format: in vivo, rat; conditions: for LPS-induced increase of VEGF levels in the retina: 1 mg/kg GA i.p. 24 h before LPS, FIG. 5
Procedure: as §1, §2

[8] = system: membrane CD14; experiment: Membranous CD14 levels in leukocytes, membrane precipitation and immunoblotting, EIU rats; format: in vivo, rat; conditions: 1 mg/kg GA i.p. 24 h before LPS, FIG. 2
Procedure: Retinal levels of VEGF, TNF-α, and leukocyte total levels of the LPS receptor CD14 were quantified with an ELISA method, whereas membranous CD14 levels were assessed with membrane precipitation and subsequent immunoblotting. […] Protein concentration was determined by Bradford assay (Protein Assay, Bio-Rad, Hercules, Calif.). […]
Neutrophils were isolated from whole blood by density gradient centrifugation with Histopaque® 1083 cell separation media (Sigma, St Louis, Mo.) according to the manufacturer's instructions. […] The preparations contained>85% monocytes as determined by eosin and methylene blue staining (Leukostat Staining System, Fisher Scientific, Pittsburgh, Pa.). […] The samples were cleared by centrifugation (14,000 rpm, 30 min, 40° C.) and assessed for protein concentration. Biotinylated proteins, representing the cell surface proteins, were immunoprecipitated with Streptavidin-agarose for 2 hours at 40° C., electrophoresed in an SDS-PAGE and CD14 levels were detected by Western Blotting as described.

[9] = system: TNF-α; experiment: Retinal TNF-α levels, ELISA, EIU rats; format: in vivo, rat; conditions: for LPS-induced increase of TNF-alpha levels in the retina: 1 mg/kg GA i.p. 24 h before LPS, FIG. 6
Procedure: as §1, §2

[10] = system: blood-retinal barrier; experiment: Blood-retinal barrier breakdown by Evans Blue extravasation, EIU rats; format: in vivo, rat; conditions: 1 mg/kg GA i.p. 24 h before LPS
Procedure: as §1
(§5) Leukocyte activation was quantified with a myeloperoxidase (MPO) activity assay and blood-retinal barrier breakdown was assessed by Evans Blue extravasation. Animals were anesthetized and Evans blue dye (Sigma) dissolved in normal saline (30 mg/ml) was injected through the tail vein at a dosage of 45 mg/kg body weight. After the dye had circulated for 120 minutes, the chest cavity was opened and blood samples were obtained from the left ventricle to assess the Evans blue plasma concentration. These blood samples were centrifuged at 16,000 g for 5 minutes. […] The absorbance of Evans blue was measured by spectrophotometry as described below. […] The background-subtracted absorbance was determined by measuring each sample at 620 nm (absorbance maximum for Evans blue in formamide) and 740 nm (absorbance minimum). The concentrations of dye in the extracts and the blood samples were calculated using a standard curve of Evans blue in formamide. Blood-ocular barrier breakdown was calculated using the following equation, with results being expressed in microliters of plasma per gram of retina dry weight times hours of dye circulating time. […]

[11] = system: myeloperoxidase (MPO) activity; experiment: Leukocyte activation, myeloperoxidase (MPO) activity assay, EIU rats; format: in vivo, rat; conditions: 1 mg/kg GA i.p. 24 h before LPS, leukocytes from rats with EIU, FIG. 7
Procedure: as §1, §5

[12] = attributed to instability; cited from earlier work
[13] = Phase I trials in various neoplasias; cited from earlier work
[14] = stated for 17AAG in the description, no conditions given

## COC1=C2C[C@@H](C)C[C@H](OC)[C@H](O)[C@@H](C)/C=C(\C)[C@H](OC(N)=O)[C@@H](OC)/C=C\C=C(/C)C(=O)NC(=CC1=O)C2=O [Geldanamycin]
[1]
  LPS-induced increase in total CD14 levels in the leukocytes: does not affect
[1]; listed as GA
  LPS-induced increase in total CD14 levels in the leukocytes: did not reduce
[2]
  LPS-induced increase in leukocyte adhesion in vitro: significantly suppressed
[3]
  LPS-induced upregulation of retinal ICAM-1 levels: decreases
[4]
  LPS-induced increase in leukocyte adhesion ex vivo: significantly suppressed
[5]
  LPS-induced increase of HIF-1α activity in the retina: significantly suppressed
[5]; listed as geldanamycin
  LPS-induced increase of HIF-1α activity in the retina: decreases
[6]
  LPS-induced increase of NF-κB activity in the retina: significantly suppressed
[6]; listed as geldanamycin
  LPS-induced increase of NF-κB activity in the retina: decreases
[7]
  LPS-induced increase of VEGF levels in the retina: significantly suppressed
[7]; listed as geldanamycin
  LPS-induced increase of VEGF levels in the retina: decreases
[8]
  membrane CD14 levels in leukocytes: decreases
[8]; listed as GA
  membrane CD14 levels in leukocytes: significantly decreased
[9]
  LPS-induced increase of TNF-alpha levels in the retina: significantly suppressed
[9]; listed as geldanamycin
  LPS-induced increase of TNF-alpha levels in the retina: decreases
[10]; FIG. 12
  vascular leakage (blood-retinal barrier breakdown): significantly suppressed
[10]; FIG. 12, listed as geldanamycin
  vascular leakage (blood-retinal barrier breakdown): decreases
[11]
  MPO activity: significantly suppressed
[11]; listed as geldanamycin
  MPO activity: reduces

## C[C@@H]1C[C@H]2O[C@@H]2/C=C\C=C\C(=O)Cc2c(Cl)c(O)cc(O)c2C(=O)O1 [radicicol, Radicicol]
[12]
  activity in animals: little or no activity

## C=CCNC1=C2C[C@@H](C)C[C@H](OC)[C@H](O)[C@@H](C)/C=C(\C)[C@H](OC(N)=O)[C@@H](OC)/C=C\C=C(/C)C(=O)NC(=CC1=O)C2=O [17AAG, 17-Allylamino-17-demethoxygeldanamycin]
[7]; [14]
  expression of VEGF: reduces
[13]
  pharmacokinetic profile: favorable pharmacokinetic profile
  side effects: transient and manageable side effects
[9]; [14]
  expression of TNF-α: reduces
